The record followed here is publication PMC12276035, “Novel Para‐Phenylenediamine‐Based Derivatives as Receptor Tyrosine Kinase‐like Orphan Receptor 1 (ROR1) Inhibitors: An In Vitro Preliminary Characterization” (Chemmedchem, 2025).

Each structure is given as a SMILES string.

The target of one assay is T1, ROR1 kinase domain (Homo sapiens, UniProt Q01973).
T1 construct: recombinant human ROR1 protein (aa 453‐783, His&GST Tag); His; GST; purchased Elabscience
T1 sequence (Q01973 453-783): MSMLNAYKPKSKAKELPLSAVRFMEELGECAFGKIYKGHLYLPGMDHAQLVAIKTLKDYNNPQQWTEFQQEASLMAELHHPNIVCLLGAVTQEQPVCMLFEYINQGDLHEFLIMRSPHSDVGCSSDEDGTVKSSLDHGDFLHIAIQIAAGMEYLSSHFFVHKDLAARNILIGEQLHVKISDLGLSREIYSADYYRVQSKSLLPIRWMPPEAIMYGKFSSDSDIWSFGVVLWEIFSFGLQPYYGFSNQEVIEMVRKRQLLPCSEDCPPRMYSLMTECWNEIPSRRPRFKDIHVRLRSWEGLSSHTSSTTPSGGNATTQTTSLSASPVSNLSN
Put plainly: SPR assay on ROR1 kinase domain. The class given is binding. The settings on record: SPR, KD ± SD, 0 to 100 μM, 25 °C; n.b. = no binding; read-out: Kinase domain KD. As to the method:
We performed molecular docking experiments to explore the binding mode of novel derivatives using the crystallographic structure of the protein co‐complexed with ponatinib, a known inhibitor of ROR1 (PDB code: 6TU9).^[ [30] ^] […] To evaluate the affinity of the synthesized molecules (10, 13, 14, 17–21, 26–29) for the protein counterpart, SPR assay was performed against kinase domain ROR1. Protein immobilization was achieved using the amide coupling method, and the molecules were tested at 10 different concentrations, ranging from 0 to 100 μM. Ponatinib was used as a positive control^[ [30] ^] (Table 1 ).
SPR spectroscopy analyses were conducted to evaluate the binding affinity of the synthesized compounds against ROR1 receptor using a Biacore T200 optical biosensor equipped with research‐grade CM5 sensor chips (Cytiva, Marlborough, USA). ROR1 kinase domain was immobilized on the CM5 sensor chip surface following standard amine‐coupling protocols. Specifically, kinasic domain was immobilized at pH 4.5 10 mM CH3COONa using a flow rate of 10 μL min^−1, achieving a density of around 20 kRU.
For the experiments, surfaces of ROR1, along with an unmodified reference surface, were prepared for simultaneous analyses. […] The compounds were injected in a series of concentrations (1:2 dilution, 10 different concentrations), spanning from 0 to 100 μM. The concentration series were prepared in 96‐well plates. SPR experiments were conducted at 25 °C, with a flow rate of 20 μL min^−1, allowing for 90 s of association monitoring and 400 s of dissociation monitoring. Changes in mass, reflective of the binding response, were recorded as resonance units (RU). K D values were determined using the Biaevaluation software performing a global fit of the double‐referenced association and dissociation data to a 1:1 interaction model^[ [43] ^] (see Figure S38, Supporting Information).
Background: SPR reads the build-up and loss of mass on a sensor chip optically.

In a further assay the test system is JeKo‐1 cells. As to the kind of experiment: MTT cell viability assay, JeKo‐1. The class given is cell-based. The settings on record: Homo sapiens, cytotoxicity, treated for 72 h, read-out: EC50 ± SD JeKo‐1. As to the method: Cytotoxicity studies, assessing the activity of the synthetized compounds, were performed only on the molecules showing the best binding profile in the SPR assay. MTT test was performed on two cell lines known for overexpressing ROR1, particularly MTT assays were conducted on JeKo‐1 (human mantle cell lymphoma) and SH‐SY5Y (neuroblastoma), exposing them to different concentrations of compounds for 72 h (Table 2 ). […] This increased effectiveness is likely due to the high expression of the target protein in leukemia and other hematologic malignancies. […] A key structural difference in 18 and 19 compared to active compounds is the absence of the trifluoromethyl group on the aromatic ring. Indeed, the removal of the trifluoromethyl group (18) or the incorporation of an electron‐donating substituent (19) alters the interaction with the ATP‐binding pocket.
The JeKo‐1 mantle cell lymphoma (MCL) cell line, derived from mantle cell lymphoma of B‐cell lineage, was obtained from ATCC and was grown in RPMI supplemented with 10% v/v fetal bovine serum, 2 mM L‐glutamine, 100 U mL^−1 penicillin, and 0.1 mg mL^−1 streptomycin.
Cell viability was established by measuring mitochondrial metabolic activity with MTT. In brief, SH‐SY5Y (20 × 10^3 cells/well) and JeKo‐1 (10 × 10^3 cells/well) were plated into 96‐well plates for 24 h, then the compounds (1.56–50 μM) were added. […], cells were replaced with a fresh medium containing 0.5 mg mL^−1 MTT.^[ [45] ^] Cells were incubated for 1–3 h at 37 °C, then the medium was discarded, and formazan blue crystals in the cells dissolved with 100 μL per well of a solution containing isopropanol/HCl 0.1 M. The absorbance was measured at 570 nm using a microplate reader (Multiskan Go, Thermo Scientific, Waltham, MA, USA). Cell viability was expressed as a percentage relative to the untreated cells cultured in medium with 0.1% DMSO and set to 100%, whereas 10% DMSO was used as positive control and set to 0% of viability. The EC50 values were calculated using GraphPad Prism 8.0 software by nonlinear regression of dose‐response inhibition.
For orientation: Tetrazolium dyes change colour on reduction, which living cells bring about.

Turning to `O=C(NCc1ccc(-c2ccccc2)cc1)Nc1ccc(NCC2CCNCC2)cc1C(F)(F)F` [Compound 17], the Kd at ROR1 kinase domain was determined as 12.1 ± 2.68 µM. In the assay on JeKo‐1 cells, the EC50 stood at 10.3 ± 2.86 µM.

In general, Kd refers to a measure of binding affinity in units of concentration. For orientation: EC50 means the concentration giving half of the maximal effect.
